How the values were obtained:
NFIB-induced astrocytes [1] = assay: Calcium transient assay (Fluo-4 calcium imaging); format: cell-based, human
Procedure: To confirm whether the cells acquire the ability to change intracellular calcium concentration, gene set enrichment analysis (GSEA) was employed to validate the expression pattern of genes related to this specific function. This analysis involved comparing the ranked gene signature of day 0 cells versus day 14 cells, with genes related to calcium-mediated signaling (GO:0019722). […] Calcium imaging was conducted on cells on days 7 and 14 using Fluo-4, a calcium indicator, and the intracellular calcium transients between two time points were compared. For calcium imaging, the differentiated astrocytes were prepared on 12 mm coverslips. After replacing the cell culture medium with Hank's Balanced Salt Solution (HBSS, without calcium or magnesium) (Thermo Fisher Scientific), differentiated astrocytes were incubated with 5 μM Fluo-4 AM (Thermo Fisher Scientific) at 37° C. for 30 minutes and then washed twice with the HBSS solution before calcium imaging. Thereafter, intracellular calcium levels were analyzed using the Fluo-4 AM fluorescence dye detection method, employing a confocal microscope (Fluoview FV1000, Olympus). For this purpose, intensity images of 535 nm wavelength were captured at 488 nm excitation wavelength at a rate of one frame per 2 seconds. Intracellular calcium levels were expressed as a fluorescence ratio (F/FO), calculated as changes in the fluorescence intensity (F) after treatments with 30 μM ATP or 100 μM glutamate, compared to the initial fluorescence intensity (FO) in the resting state.

hPSC-NPCs = test system: hPSC-NPCs
From the text: FIG. 8A illustrates clustering and scaled expression patterns for differentially expressed genes (DEGs) during the differentiation process using NFIB. […] FIG. 8E and FIG. 8F quantify the percentage of cells positive for each marker on day 14 of differentiation. […] Data is presented as the mean #s.e.m. (n=3) (* p<0.05, ** p<0.01, *** p<0.001).

NFIB-induced astrocytes [2] = assay: Glutamate uptake analysis; format: cell-based, human; details: 100 µM of glutamate; after 3 hours; day 7 of differentiation; n=6
From the text: Uptake of excitatory neurotransmitters such as glutamate is another critical function of the astrocytes in the nervous system. This is because excessive glutamate concentration results in excitotoxic damage to the nervous tissue, potentially causing neurodegeneration. As there was a gradual upregulation of the neurotransmitter recycling protein, GLUL, in due course of gene expression (FIG. 5C, indicated by a red box with an asterisk), the ability of the NFIB-induced astrocytes to take up glutamate was assessed throughout differentiation to determine whether the ability improves. The astrocytes were exposed to 100 µM of glutamate, and the concentration of glutamate remaining in the medium was measured after 3 hours on day 7 and day 14. […] This increased uptake correlates well with the gradual increment of various genes related to neurotransmitter uptake (GO: 0001504), including SCL1A3 (a gene encoding excitatory amino acid transporter 1, also known as GLAST) and ARL6IP5 (a gene encoding glutamate transporter EEAC1-interacting protein).

## Nc1ncnc2c1ncn2[C@@H]1O[C@H](COP(=O)(O)OP(=O)(O)OP(=O)(O)O)[C@@H](O)[C@H]1O [ATP]
NFIB-induced astrocytes [1]; 30 μM ATP, day 7 of differentiation, n=70
  cells with amplitude of calcium transients (F/FO) less than 3, among total cells: 84.3%
NFIB-induced astrocytes [1]; 30 μM ATP, day 14 of differentiation, all the cells tested, n=80
  amplitude of calcium transients, fluorescence ratio: ≥ 3 F/FO
NFIB-induced astrocytes [1]; 30 μM ATP, regardless of the differentiation period (day 7 and day 14)
  duration of elevated intracellular calcium level: ≥ 50 s

## N#CC(=C(/N)Sc1ccccc1N)/C(C#N)=C(\N)Sc1ccccc1N [U0126]
hPSC-NPCs; 20 μM
  cell death: did not induce significant cell death
  cell proliferation: tended to slightly decrease cell proliferation
hPSC-NPCs; 20 μM, Treatment Condition 3: two days from day 12 to day 14 of differentiation
  GFAP-positive cells (astrocytes) in total cells: 26.88%
hPSC-NPCs; 20 μM, among treatment groups, day 14
  number of SOX1-positive cells: not significantly different among the groups
hPSC-NPCs; 20 μM, compared with vehicle-treated group, correlated with exposure time
  morphology of GFAP-positive cells: small cell body with fewer short processes
hPSC-NPCs; 20 μM, prolonged treatment (Treatment Condition 1 or 2), day 14
  number of GFAP-positive cells: significantly reduced the number of GFAP-positive cells
hPSC-NPCs; pharmacological inhibition of the MAPK signaling pathway, FIG. 8D
  astrocyte differentiation (fluorescence images for GFAP and SOX1): robust suppression of astrocyte differentiation

## glutamate
NFIB-induced astrocytes [2]
  glutamate uptake: 12.34±1.17%
NFIB-induced astrocytes [1]; 100 μM glutamate, day 7 of differentiation
  duration of asynchronous calcium oscillations: less than 100 seconds
NFIB-induced astrocytes [1]; 100 μM glutamate, day 7 of differentiation, n=19
  average amplitude of calcium response: 4.92±0.32 F/FO
NFIB-induced astrocytes [1]; 100 μM glutamate, day 14 of differentiation
  cells with amplitudes greater than 10: 32.4%
NFIB-induced astrocytes [1]; 100 μM glutamate, day 14 of differentiation, n=26
  amplitude of intracellular calcium peaks: 9.63±1.07 F/FO
